Test results taken from patent EP0561850B1, “7-SUBSTITUTED-6-FLUORO-1,4-DIHYDRO-4-OXO-QUINOLINE-3-CARBOXYLIC ACID COMPOUNDS USEFUL AS ANTIBACTERIAL AGENTS” (priority 1990, dated 1992).
≈ marks a conversion by molar mass, not a printed value.

Key:
Test in all cases: Microbroth dilution (MHB) method, NCCLS M7-A2
Sa 127M = assay type: cell-based, Staphylococcus aureus; details: Staphylococcus aureus, inoculum 5 x 10^5 cfu/ml, 35 °C/18 hr, read-out: MIC
Method: (§1) The test organisms were obtained from ATCC and clinical laboratories. The 96-well microtitre plates containing […] of serially diluted test compounds in Mueller Hinton Broth (MHB) (conc. range 64-0.03 µg/ml) were inoculated with […] of bacterial suspension in MHB so that an inoculum size of 5 x 10^5 cfu/ml was achieved.
(§2) EC. (S- 63): Eschericia coli Ecl. (S- 130): Enterobacter cloacae Pa. (S- 67): Pseudomonas aeruginosa Kp. (S- 80): Klebsiella pneumoniae Pr.
(§3) Microbroth Dilution (MHB) method; Inoculum, 5 x 10^5 cfu/ml; Incubation 35 °C/18 hr

[1] = test system: Pseudomonas aeruginosa S-67; assay type: cell-based; details: Pseudomonas aeruginosa, S67; Pa S-67; MHB; inoculum 5 x 10^5 cfu/ml; 35 °C/18 hr; read-out: MIC
Method: as §1, §2, §3

[2] = test system: Providencia rettgeri S-121; assay type: cell-based; details: Providencia rettgeri, S121, Pr S-121, inoculum 5 x 10^5 cfu/ml, 35 °C/18 hr, read-out: MIC
Method: as §1, §2, §3

Eschericia coli S-63 = assay type: cell-based; details: Ec S-63, inoculum 5 x 10^5 cfu/ml, 35 °C/18 hr, read-out: MIC
Method: as §1, §2, §3

[3] = test system: Staphylococcus aureus S-127; assay type: cell-based; details: Staphylococcus aureus, S127, Sa S-127, inoculum 5 x 10^5 cfu/ml, 35 °C/18 hr, read-out: MIC
Method: as §1, §2, §3

[4] = test system: Klebsiella pneumoniae S-80; assay type: cell-based; details: Klebsiella pneumoniae, S80; Kp S-80; MHB; inoculum 5 x 10^5 cfu/ml; 35 °C/18 hr; read-out: MIC
Method: as §1, §2, §3

[5] = test system: Enterobacter cloacae S-130; assay type: cell-based; details: Enterobacter cloacae, S130, Ecl S-130, inoculum 5 x 10^5 cfu/ml, 35 °C/18 hr, read-out: MIC
Method: as §1, §2, §3

| MIC (Sa 127M) | MIC [1] | MIC [2] | MIC (Eschericia coli S-63) | MIC [3] | MIC [4] | MIC [5] | Structure (SMILES) |
| --- | --- | --- | --- | --- | --- | --- | --- |
| 0.5 µg/mL (≈ 1.25 µM) | 8 µg/mL (≈ 20 µM) | 1 µg/mL (≈ 2.5 µM) | 0.25 µg/mL (≈ 0.626 µM) | 0.12 µg/mL (≈ 0.3 µM) | 1 µg/mL (≈ 2.5 µM) | 1 µg/mL (≈ 2.5 µM) | C[C@H]1COc2c(N3CCC(n4ccnn4)C3)c(F)cc3c(=O)c(C(=O)O)cn1c23 (single isomer, unassigned; (-)) [Example 38] |
| 0.12 µg/mL (≈ 0.29 µM) | 8 µg/mL (≈ 19.4 µM) | 1 µg/mL (≈ 2.42 µM) | 0.25 µg/mL (≈ 0.605 µM) | 0.03 µg/mL (≈ 0.0726 µM) | 1 µg/mL (≈ 2.42 µM) | 1 µg/mL (≈ 2.42 µM) | Cc1cn(C2CCN(c3c(F)cc4c(=O)c(C(=O)O)cn5c4c3OC[C@@H]5C)C2)nn1 (single isomer, unassigned; (-)) [Example 39] |
| 0.5 µg/mL (≈ 1.25 µM) | 8 µg/mL (≈ 20 µM) | 0.5 µg/mL (≈ 1.25 µM) | 1 µg/mL (≈ 2.5 µM) | 1 µg/mL (≈ 2.5 µM) | 1 µg/mL (≈ 2.5 µM) | 1 µg/mL (≈ 2.5 µM) | C[C@H]1COc2c(N3CCC(n4cncn4)C3)c(F)cc3c(=O)c(C(=O)O)cn1c23 (single isomer, unassigned; (-)) [Example 40] |
| 0.015 µg/mL (≈ 0.0349 µM) | 2 µg/mL (≈ 4.66 µM) | 0.12 µg/mL (≈ 0.279 µM) | 0.06 µg/mL (≈ 0.14 µM) | 0.015 µg/mL (≈ 0.0349 µM) | 0.25 µg/mL (≈ 0.582 µM) | 0.25 µg/mL (≈ 0.582 µM) | Cc1cn(C2CCN(c3c(F)c(C)c4c(=O)c(C(=O)O)cn(C5CC5)c4c3F)C2)nn1 (stereo not shown) [Example 21, 1-Cyclopropyl-6,8-difluoro-5-methyl-7-[3-(4-methyl-1,2,3-triazol-1-yl)pyrrolidin-1-yl]-1,4-dihydro-4-oxo-quinoline-3-carboxylic acid] |
| 0.12 µg/mL (≈ 0.289 µM) | 4 µg/mL (≈ 9.63 µM) | 0.25 µg/mL (≈ 0.602 µM) | 0.25 µg/mL (≈ 0.602 µM) | ≤ 0.015 µg/mL | 0.5 µg/mL (≈ 1.2 µM) | 0.25 µg/mL (≈ 0.602 µM) | Cc1cnnn1C1CCN(c2c(F)cc3c(=O)c(C(=O)O)cn(C4CC4)c3c2F)C1 (stereo not shown) [Example 22, 1-Cyclopropyl-6,8-difluoro-7-[3-(5-methyl-1,2,3-triazol-1-yl)pyrrolidin-1-yl]-1,4-dihydro-4-oxo-quinoline-3-carboxylic acid] |
| ≤ 0.015 µg/mL | 4 µg/mL (≈ 9.63 µM) | 0.5 µg/mL (≈ 1.2 µM) | 0.12 µg/mL (≈ 0.289 µM) | ≤ 0.015 µg/mL | 0.5 µg/mL (≈ 1.2 µM) | 0.25 µg/mL (≈ 0.602 µM) | Cc1c(F)c(N2CCC(n3cncn3)C2)c(F)c2c1c(=O)c(C(=O)O)cn2C1CC1 (stereo not shown) [Example 23, 1-Cyclopropyl-6,8-difluoro-5-methyl-7-[3-(1,2,4-triazol-1-yl)pyrrolidin-1-yl]-1,4-dihydro-4-oxo-quinoline-3-carboxylic acid] |
| ≤ 0.015 µg/mL | 4 µg/mL (≈ 9.63 µM) | 0.5 µg/mL (≈ 1.2 µM) | 0.12 µg/mL (≈ 0.289 µM) | ≤ 0.015 µg/mL | 0.5 µg/mL (≈ 1.2 µM) | 0.25 µg/mL (≈ 0.602 µM) | Cc1c(F)c(N2CCC(n3ccnn3)C2)c(F)c2c1c(=O)c(C(=O)O)cn2C1CC1 (stereo not shown) [Example 24, 1-Cyclopropyl-6,8-difluoro-5-methyl-7-[3-(1,2,3-triazol-1-yl)pyrrolidin-1-yl]-1,4-dihydro-4-oxo-quinoline-3-carboxylic acid] |
| 0.03 µg/mL (≈ 0.0697 µM) | 2 µg/mL (≈ 4.65 µM) | 0.25 µg/mL (≈ 0.581 µM) | 0.06 µg/mL (≈ 0.139 µM) | ≤ 0.015 µg/mL | 0.25 µg/mL (≈ 0.581 µM) | 0.25 µg/mL (≈ 0.581 µM) | Cc1cn(C2CCN(c3c(F)c(N)c4c(=O)c(C(=O)O)cn(C5CC5)c4c3F)C2)nn1 (stereo not shown) [Example 25, 5-Amino-1-cyclopropyl-6,8-difluoro-7-[3-(4-methyl-1,2,3-triazol-1-yl)pyrrolidin-1-yl]-1,4-dihydro-4-oxo-quinoline-3-carboxylic acid] |
| 0.06 µg/mL (≈ 0.14 µM) | 8 µg/mL (≈ 18.6 µM) | 1 µg/mL (≈ 2.33 µM) | 0.25 µg/mL (≈ 0.582 µM) | 0.03 µg/mL (≈ 0.0699 µM) | 1 µg/mL (≈ 2.33 µM) | 2 µg/mL (≈ 4.66 µM) | Cc1nnn(C2CCN(c3c(F)cc4c(=O)c(C(=O)O)cn(C5CC5)c4c3F)C2)c1C (stereo not shown) [Example 26, 1-Cyclopropyl-6,8-difluoro-7[3-(4,5-dimethyl-1,2,3-triazol-1-yl)pyrrolidin-1-yl]-1,4-dihydro-4-oxo-quinoline-3-carboxylic acid] |
| 0.25 µg/mL (≈ 0.602 µM) | 4 µg/mL (≈ 9.63 µM) | 2 µg/mL (≈ 4.81 µM) | 0.25 µg/mL (≈ 0.602 µM) | 0.125 µg/mL (≈ 0.301 µM) | 0.5 µg/mL (≈ 1.2 µM) | 1 µg/mL (≈ 2.41 µM) | Cc1cn(C2CCN(c3c(F)cc4c(=O)c(C(=O)O)cn(C5CC5)c4c3F)C2)nn1 (stereo not shown) [Example 27, 1-Cyclopropyl-6,8-difluoro-7-[3-(4-methyl-1,2,3-triazol-1-yl)pyrrolidin-1-yl]-1,4-dihydro-4-oxo-quinoline-3-carboxylic acid] |
| – | – | – | 0.12 µg/mL (≈ 0.288 µM) | ≤ 0.015 µg/mL | – | – | Nc1c(F)c(N2CCC(n3cncn3)C2)c(F)c2c1c(=O)c(C(=O)O)cn2C1CC1 (stereo not shown) [Example 28, 5-Amino-1-cyclopropyl-6,8-difluoro-7-[3-(1,2,4-triazol-1-yl)pyrrolidin-1-yl]-1,4-dihydro-4-oxo-quinoline-3-carboxylic acid] |
| 0.06 µg/mL (≈ 0.149 µM) | 4 µg/mL (≈ 9.97 µM) | 0.25 µg/mL (≈ 0.623 µM) | 0.12 µg/mL (≈ 0.299 µM) | 0.03 µg/mL (≈ 0.0747 µM) | 0.5 µg/mL (≈ 1.25 µM) | 0.25 µg/mL (≈ 0.623 µM) | O=C(O)c1cn(C2CC2)c2c(F)c(N3CCC(n4cncn4)C3)c(F)cc2c1=O (stereo not shown) [Example 29, 1-Cyclopropyl-6,8-difluoro-7-[3-(1,2,4-triazol-1-yl)pyrrolidin-1-yl]-1,4-dihydro-4-oxo-quinoline-3-carboxylic acid] |
| – | 8 µg/mL (≈ 19.4 µM) | 0.5 µg/mL (≈ 1.21 µM) | 0.5 µg/mL (≈ 1.21 µM) | 0.5 µg/mL (≈ 1.21 µM) | 0.5 µg/mL (≈ 1.21 µM) | 0.5 µg/mL (≈ 1.21 µM) | COc1c(N2CCC(n3cncn3)C2)c(F)cc2c(=O)c(C(=O)O)cn(C3CC3)c12 (stereo not shown) [Example 34, 1-Cyclopropyl-6-fluoro-7-[3-(1,2,4-triazol-1-yl)pyrrolidin-1-yl]-8-methoxy-1,4-dihydro-4-oxo-quinoline-3-carboxylic acid] |
| – | – | – | 0.12 µg/mL (≈ 0.278 µM) | 0.03 µg/mL (≈ 0.0695 µM) | – | – | Nc1cn(C2CCN(c3c(F)c(N)c4c(=O)c(C(=O)O)cn(C5CC5)c4c3F)C2)nn1 (stereo not shown) [Example 41, 5-Amino-1-cyclopropyl-6,8-difluoro-7-(3-(4-amino-1,2,3-triazol-1-yl)-pyrrolidin-1-yl)-1,4-dihydro-4-oxo-quinoline-3-carboxylic acid] |
| – | 8 µg/mL (≈ 18.6 µM) | 1 µg/mL (≈ 2.32 µM) | 0.5 µg/mL (≈ 1.16 µM) | 25 µg/mL (≈ 58.1 µM) | 1 µg/mL (≈ 2.32 µM) | 0.25 µg/mL (≈ 0.581 µM) | NCc1cnnn1C1CCN(c2c(F)cc3c(=O)c(C(=O)O)cn(C4CC4)c3c2F)C1 (stereo not shown) [Example 44] |
| 1 µg/mL (≈ 2.25 µM) | – | – | 0.25 µg/mL (≈ 0.561 µM) | – | – | – | O=C(O)c1cn(C2CCN(c3c(F)cc4c(=O)c(C(=O)O)cn(C5CC5)c4c3F)C2)nn1 (stereo not shown) [Example 45, 1-cyclopropyl-6,8-difluoro-7-[3-(4-carboxyl-1,2,3-triazol-1-yl)pyrrolidin-1-yl]-1,4-dihydro-4-oxo-quinoline-3-carboxylic acid] |
| ≤ 0.03 µg/mL | 2 µg/mL (≈ 4.97 µM) | 0.12 µg/mL (≈ 0.298 µM) | 0.06 µg/mL (≈ 0.149 µM) | ≤ 0.03 µg/mL | 0.12 µg/mL (≈ 0.298 µM) | – | O=C(O)c1cn(C2CC2)c2c(F)c(N3CCC(n4ncnn4)C3)c(F)cc2c1=O (stereo not shown) [Example 51, 1-Cyclopropyl-6,8-difluoro-7-[3-(1,2,3,4-tetrazol-2-yl)pyrrolidin-1-yl]-1,4-dihydro-4-oxo-quinoline-3-carboxylic acid] |
| – | 2 µg/mL (≈ 4.97 µM) | 0.12 µg/mL (≈ 0.298 µM) | 0.06 µg/mL (≈ 0.149 µM) | 0.06 µg/mL (≈ 0.149 µM) | 0.25 µg/mL (≈ 0.621 µM) | – | O=C(O)c1cn(C2CC2)c2c(F)c(N3CCC(n4cnnn4)C3)c(F)cc2c1=O (stereo not shown) [Example 52, 1-Cyclopropyl-6,8-fluoro-7-[3-(1,2,3,4-tetrazol-1-yl)pyrrolidin-1-yl]-1,4-dihydro-4-oxo-quinoline-3-carboxylic acid] |
